From patent US11465974B2, “Crystalline polymorphs of Pracinostat and Pracinostat salts” (ASSIA CHEMICAL INDUSTRIES LTD., priority 2017, dated 2022)
Structures can show the parent of a compound that is named as a salt.

How the values were obtained:
Format in all cases: physicochemical
[1] = Hygroscopicity (absorption of water, determined for example by TGA)
Text: As used herein the term non-hygroscopic in relation to crystalline forms of Pracinostat refers to less than 0.2% (w/w) absorption of water, by the crystalline form of Pracinostat, as determined for example by TGA. Water can be for example atmospheric water.

[2] = Physical pressure stability test; conditions: 3 ton pressure for 1 minute at room temperature
Protocol: Physical pressure stability test: The tested sample was exposed to 3 ton pressure for 1 minute at room temperature.

[3] = Polymorphic stability at relative humidity 0% to 100%; conditions: RH of from 0% to 100%, room temperature
[4] = Grinding stability test; conditions: ground by mortar and pestle for 1 minute at room temperature, without solvent or with one drop of ethanol, isopropyl alcohol or water
Protocol: Grinding stability test: The tested sample was grinded by moltal&pestle for 1 minute at room temperature either without a solvent or with one drop of solvent from the following solvents: Ethanol, Isopropyl alcohol and water.

[5] = Thermal stability test; conditions: heated to 100° C. for 30 minutes at open dish
Protocol: Thermal stability test: The tested sample was heated to temperature of 100° C. for 30 minutes at open dish.

Row | absorption of water (hygroscopicity) [1] | stability under physical pressure [2] | period of polymorphic stability [3] | stability under grinding [4] | stability under thermal test [5] | SMILES
1 | less than 0.2 % (w/w) | stable | at least 7 days | stable | stable | CCCCc1nc2cc(/C=C/C(=O)NO)ccc2n1CCN(CC)CC [Form P3, (E)-3-[2-Butyl-1-[2-(diethylamino)ethyl]-1H-benzo[d]imidazol-5-yl]-N-hydroxy-acrylamide]
2 | less than 0.2 % (w/w) | stable | at least 7 days | stable | stable | CCCCc1nc2cc(/C=C/C(=O)NO)ccc2n1CCN(CC)CC [Form P7, (E)-3-[2-Butyl-1-[2-(diethylamino)ethyl]-1H-benzo[d]imidazol-5-yl]-N-hydroxy-acrylamide]
3 | less than 2 % (w/w) | stable | at least 7 days | stable | stable | CCCCc1nc2cc(/C=C/C(=O)NO)ccc2n1CCN(CC)CC [Pracinostat sulfate Form S1]
